{
  "source": "patent US10206906B2",
  "about": "“Synergistic combination of a phenolic-rich maple syrup extract and an antibiotic” (priority 2015, dated 2019)",
  "key": {"[1]": {"tested_on": "P. aeruginosa PA14", "assay": "Checkerboard microdilution assay (growth inhibition synergy)", "type": "cell-based, Pseudomonas aeruginosa", "procedure": "(§1) The checkerboard microdilution assay is used for evaluation of in vitro antimicrobial synergy between two compounds (i.e., antibiotic/PRMSE, antibiotic/pure phenolic compound, and pure phenolic compounds with each other). Two-fold serial dilutions are prepared in MHB-II for each of the two compounds under study. The serial dilutions are then loaded into 96 well plates to achieve combinations having different concentrations of each of the two compounds. Each well is subsequently inoculated with 10^6 CFU mL^−1 of the desired bacterial strain and incubated at 37° C. for 18 h under static conditions. The Fractional Inhibitory Concentration Index (FICI) for each combination is calculated by using the following formula: FICcomponent 1=MICcomponent 1, in combination/MICcomponent 1,alone FICI=FICcomponent 1+FICcomponent 2\n(§2) The FICIs are interpreted as follows: FICI of […] (synergy); 0.5<FICI ≤1 (no interaction/indifference); FICI of >4 (antagonism)."}, "[2]": {"tested_on": "P. aeruginosa PAO1", "assay": "Checkerboard microdilution assay (growth inhibition synergy)", "type": "cell-based, Pseudomonas aeruginosa", "procedure": "as §1, §2"}, "[3]": {"tested_on": "outer membrane of E. coli CFT073", "assay": "Outer membrane permeabilization, NPN uptake assay", "type": "cell-based, Escherichia coli", "conditions": "sub-MIC; concentration giving maximal increase in NPN uptake", "procedure": "The cells are harvested, washed with 5 mM HEPES buffer (pH 7.2), and resuspended in the same volume (10 mL) of 5 mM HEPES buffer (pH 7.2) containing 1 mM N-ethylmaleimide (NEM, Sigma-Aldrich Canada). Aliquots (1 mL) are mixed with NPN to a final concentration of 10 μM (in cell suspension) and fluorescence is measured using the microplate reader (ex/em 350/420 nm)."}, "[4]": {"tested_on": "proton motive force-driven multidrug efflux pump of E. coli CFT073", "assay": "Ethidium bromide (EtBr) efflux assay", "type": "cell-based, Escherichia coli", "conditions": "PRMSE, catechol at 0.25 times the MIC; CCCP 100 μM; untreated cells 36.9", "procedure": "(§3) An overnight grown culture of each strain is diluted 1:100 using MHB-II broth to a final volume of 10 mL and grown to an OD600 of 0.8-1.0 (at 37° C., 150 rpm). […] The tubes are incubated for 1 h (37° C., 150 rpm). The inoculum is then adjusted to 0.4 OD600 with MHB-II broth containing 5 μM EtBr and 2 mL aliquots of this mixture are pelleted (5000×g, 10 min at 4° C.). The pellets are incubated on ice immediately, resuspended in 1 mL of MHB-II, and aliquoted (200 μL) into a polystyrene 96 well black, clear-bottom plate (Corning™, Fisher Scientific, ON, Canada). EtBr efflux from the cells is monitored at room temperature using the microplate reader (ex/em 530/600 nm). Readings are taken at 5 min intervals for 1 h to monitor efflux pump activity. The background fluorescence of the medium is subtracted from all measurements and the assay is repeated independently in triplicate."}, "[5]": {"tested_on": "proton motive force-driven multidrug efflux pump of P. aeruginosa PA14", "assay": "Ethidium bromide (EtBr) efflux assay", "type": "cell-based, Pseudomonas aeruginosa", "conditions": "PRMSE, catechol at 0.25 times the MIC; CCCP 100 μM; untreated cells 30.9", "procedure": "as §3"}, "[6]": {"tested_on": "proton motive force-driven multidrug efflux pump of P. aeruginosa PAO1", "assay": "Ethidium bromide (EtBr) efflux assay", "type": "cell-based, Pseudomonas aeruginosa", "conditions": "PRMSE, catechol at 0.25 times the MIC; CCCP 100 μM; untreated cells 37.6", "procedure": "as §3"}, "[7]": {"tested_on": "cell membrane of E. coli CFT073", "assay": "BacLight membrane integrity assay", "type": "cell-based, Escherichia coli", "conditions": "PRMSE, catechol at 4 × MIC for 10 min; CTAB 10 μM; untreated = 100", "procedure": "The BacLight kit (L-13152, Invitrogen™, Life Technologies Inc., Canada) is used to assess cell membrane damage. Overnight bacterial cultures are diluted 1:40 in fresh MHBII broth to a final volume of 5 mL, grown to an OD600 of 0.5-0.6, washed with filter-sterilized 10 mM phosphate buffered saline (PBS, pH 7.0) and resuspended in 1/10 of the original volume. […] Cultures are incubated at room temperature (21±2° C.) on a tube rocker for 10 min. At the end of the incubation period, an aliquot is taken for CFU counts and the remaining suspension is washed with 10 mM PBS and resuspended to an OD600) of 0.3. An aliquot (100 μL) of each bacterial suspension is removed and added to a 96-well, black, clear-bottom plate (Corning™, Fisher Scientific, ON, Canada) along with an equal volume of the BacLight™ reagent (2× stock solution, L13152, Invitrogen™, Life Technologies Inc., Canada) and the plates are incubated for 10 min at room temperature in the dark. At the end of the incubation period, fluorescence intensity is recorded for both kit components, SYTO-9 (ex/em 485/530 nm) and propidium iodide (ex/em 485/645 nm), using the microplate reader. Fluorescence readings from samples are normalized to the values obtained from untreated control to determine the ratio of membrane compromised cells to cells with intact membrane. […]"}, "[8]": {"tested_on": "E. coli CFT073", "assay": "Bacterial colony forming ability (CFU counts after exposure)", "type": "cell-based, Escherichia coli", "conditions": "log decrease vs untreated control, 4 × MIC, 10 min, CTAB 10 μM", "procedure": "(§4) The BacLight kit (L-13152, Invitrogen™, Life Technologies Inc., Canada) is used to assess cell membrane damage. Overnight bacterial cultures are diluted 1:40 in fresh MHBII broth to a final volume of 5 mL, grown to an OD600 of 0.5-0.6, washed with filter-sterilized 10 mM phosphate buffered saline (PBS, pH 7.0) and resuspended in 1/10 of the original volume. […] Cultures are incubated at room temperature (21±2° C.) on a tube rocker for 10 min. At the end of the incubation period, an aliquot is taken for CFU counts and the remaining suspension is washed with 10 mM PBS and resuspended to an OD600) of 0.3. An aliquot (100 μL) of each bacterial suspension is removed and added to a 96-well, black, clear-bottom plate (Corning™, Fisher Scientific, ON, Canada) along with an equal volume of the BacLight™ reagent (2× stock solution, L13152, Invitrogen™, Life Technologies Inc., Canada) and the plates are incubated for 10 min at room temperature in the dark. At the end of the incubation period, fluorescence intensity is recorded for both kit components, SYTO-9 (ex/em 485/530 nm) and propidium iodide (ex/em 485/645 nm), using the microplate reader. Fluorescence readings from samples are normalized to the values obtained from untreated control to determine the ratio of membrane compromised cells to cells with intact membrane. Cetyltrimethylammonium bromide (CTAB, Sigma-Aldrich Canada), a cationic detergent that is known to cause membrane damage, is used at concentration of 10 μM as a positive control for membrane disruption."}, "[9]": {"tested_on": "P. mirabilis HI4320", "assay": "Bacterial colony forming ability (CFU counts after exposure)", "type": "cell-based, Proteus mirabilis", "conditions": "log decrease vs untreated control, 4 × MIC, 10 min, CTAB 10 μM", "procedure": "as §4"}, "[10]": {"tested_on": "P. aeruginosa PA14", "assay": "Bacterial colony forming ability (CFU counts after exposure)", "type": "cell-based, Pseudomonas aeruginosa", "conditions": "log decrease vs untreated control, 4 × MIC, 10 min, CTAB 10 μM", "procedure": "as §4"}, "[11]": {"tested_on": "P. aeruginosa PAO1", "assay": "Bacterial colony forming ability (CFU counts after exposure)", "type": "cell-based, Pseudomonas aeruginosa", "conditions": "log decrease vs untreated control; 4 × MIC, 10 min; CTAB 10 μM", "procedure": "as §4"}, "[12]": {"conditions": "ciprofloxacin in combination with the labelled phenolic constituent"}, "[13]": {"conditions": "labelled constituent + gallic acid, * = synergistic"}, "[14]": {"conditions": "labelled constituent combined with gallic acid"}, "[15]": {"conditions": "labelled phenolic constituent in combination with ciprofloxacin"}},
  "data": [
    {"smiles": "Oc1ccccc1O", "note": "[catechol, 1,2-dihydroxybenzene]", "values": [
      {"measurement": "FIC of ciprofloxacin", "setting": "[1]; [12]", "value": 0.25},
      {"measurement": "FICI, gallic acid", "setting": "[1]; [13]", "value": "0.37*"},
      {"measurement": "FIC, gallic acid", "setting": "[1]; [14]", "value": 0.25},
      {"measurement": "FIC of compound", "setting": "[1]; [15]", "value": 0.25},
      {"measurement": "FIC of ciprofloxacin", "setting": "[2]; [12]", "value": 0.25},
      {"measurement": "FICI, gallic acid", "setting": "[2]; [13]", "value": "0.5*"},
      {"measurement": "FIC, gallic acid", "setting": "[2]; [14]", "value": 0.25},
      {"measurement": "FIC of compound", "setting": "[2]; [15]", "value": 0.25},
      {"measurement": "Minimum permeabilization concentration (NPN assay)", "setting": "[3]", "value": 0.06, "unit": "mg/mL"},
      {"measurement": "Efflux pump activity", "setting": "[4]", "value": 34.3, "unit": "%"},
      {"measurement": "Efflux pump activity", "setting": "[5]", "value": 29.9, "unit": "%"},
      {"measurement": "% EtBr efflux", "setting": "[6]", "value": 35.8, "unit": "%"},
      {"measurement": "% cells with uncompromised membrane (BacLight assay)", "setting": "[7]", "value": 68, "unit": "%"},
      {"measurement": "Bacterial colony forming ability (Δ log CFU mL^−1)", "setting": "[8]", "value": "2.3 Δ log CFU mL^−1"},
      {"measurement": "Bacterial colony forming ability (Δ log CFU mL^−1)", "setting": "[8]; listed as Catechol", "value": "≥ 1.5 Δ log CFU mL^−1"},
      {"measurement": "Bacterial colony forming ability (Δ log CFU mL^−1)", "setting": "[9]", "value": "3.2 Δ log CFU mL^−1"},
      {"measurement": "Bacterial colony forming ability (Δ log CFU mL^−1)", "setting": "[9]; listed as Catechol", "value": "≥ 1.5 Δ log CFU mL^−1"},
      {"measurement": "Bacterial colony forming ability (Δ log CFU mL^−1)", "setting": "[10]", "value": "1.9 Δ log CFU mL^−1"},
      {"measurement": "Bacterial colony forming ability (Δ log CFU mL^−1)", "setting": "[10]; listed as Catechol", "value": "≥ 1.5 Δ log CFU mL^−1"},
      {"measurement": "Bacterial colony forming ability (Δ log CFU mL^−1)", "setting": "[11]", "value": "1.5 Δ log CFU mL^−1"}
    ]}
  ]
}
